{
  "source": "paper PMC7763843",
  "about": "“Cytochrome P450 Expression and Chemical Metabolic Activity before Full Liver Development in Zebrafish” (Pharmaceuticals, 2020)",
  "key": {"[1]": {"conditions": "cited from earlier work; for Detection of metabolite of midazolam (neither has been detected): adult zebrafish liver microsomes or embryonic or larval microsomes or homogenates at up to 7 dpf"}, "[2]": {"tested_on": "whole zebrafish embryo or larva", "assay": "Contents of test compound metabolites per whole zebrafish embryo or larva", "conditions": "for Ce of caffeine per whole embryo or larva: metabolite experiment (Figure 6A), exposure to caffeine 10 mg/L", "quoted_text": "(§3) To calculate the content of each compound per one whole zebrafish embryo or larva (i.e., the Ce), we first determined the maximum test solution concentrations that caused neither morphological nor behavioral abnormalities during exposure. […] Beginning at 5 hpf, normal embryos were exposed to the test solution (>1 mL/embryo) in a glass container. The plastic lid of the container was kept closed, and the embryos and larvae were maintained for up to 120 hpf at 28 ± 1 °C on a 14-h light–10-h dark cycle.\nThen, the mixture was centrifuged at 20,000× g for 15 min at 10 °C with a refrigerated centrifuge (CR21N, Hitachi Koki). The supernatant was collected in a sampling tube. The extraction procedure was performed twice. The supernatants of two batches were mixed and the mixture was evaporated completely by nitrogen gas spraying. A solution (500 μL) of the same composition as the eluent for each compound was added to the tube, and then the solution was filtered through a Millex-LG membrane filter with a 0.2-μm pore size (Merck). The filtrate was double diluted with a solution of the same composition as the eluent for each compound, and the resulting solution was mixed to prepare the sample for measurement. For 1,7-dimethylxanthine, to standardize the content of the larval matrix, a mixture of larvae in the control or the vehicle control was added to each standard solution in a stepwise concentration to create each calibration curve.\nEach 5 μL sample was eluted in a mobile phase of methanol: water = 2:8 at a flow rate of 0.20 mL/min. 1,7-dimethylxanthine was monitored by using an ESI probe. Data were acquired in positive ion mode by using MRM. […]\nA calibration curve for each target substance (regression equation by using the least-squares method: Y = aX + b, where Y is the analytical response and X is the concentration of the target substance) was made by using four or five concentrations of standard solution. […] Then, all target substances were quantified by using the absolute calibration curve method and one concentration of standard solution. […]"}, "zebrafish": {"tested_on": "zebrafish", "conditions": "cited from earlier work"}, "cyp3a65 mRNA": {"tested_on": "cyp3a65 mRNA", "conditions": "in vivo", "protocol": "(§1) Embryos were dechorionized, except in the case of those exposed to TCDD due to high transparency. […] 1,7-Dimethylxanthine, 4′-OHDF, 5-OHDF, and 6β-hydroxytestosterone were obtained from Sigma-Aldrich. DMSO was purchased from Nacalai Tesque (Kyoto, Japan).\n(§2) Whole-mount in situ hybridization was performed as described previously. Paraformaldehyde-fixed embryos were hybridized with digoxigenin-incorporated antisense RNA probes of CYP subtypes at 65 °C overnight (DIG (digoxigenin) RNA Labeling Kit, Sigma-Aldrich). To obtain the CYP probes, CYP DNAs were amplified by PCR reaction with KOD FX Neo enzyme solution (Toyobo) with the primer sets listed in Table S2. This was followed by subcloning to pTAC2 TA vector (BioDynamics, Tokyo, Japan) and in vitro transcription with SP6 RNA polymerase (New England Biolabs, Ipswich, MA, USA). Following hybridization and washing, the embryos were incubated with anti-DIG antibody conjugated with alkaline phosphatase (Sigma-Aldrich) at 4 °C overnight. The color reaction was performed by incubation in BM Purple substrate or Fast Red (Sigma-Aldrich)."}, "cyp2r1 mRNA": {"tested_on": "cyp2r1 mRNA", "protocol": "as §1, §2"}, "[3]": {"tested_on": "zebrafish embryos and larvae", "assay": "Maximum test solution concentration causing neither morphological nor behavioral abnormalities", "assay_type": "in vivo, Danio rerio", "conditions": "exposure from 5 hpf up to 120 hpf", "quoted_text": "as §3"}, "[4]": {"set-up": "method as in PMID 11448232, PMID 7714751", "conditions": "cited from earlier work"}, "[5]": {"tested_on": "whole zebrafish embryo or larva", "assay": "Content of test compound per one whole zebrafish embryo or larva (Ce) every 24 hpf", "assay_type": "in vivo, Danio rerio", "conditions": "mean ± SD, n = 3; for Ce per one whole embryo or larva: 120 hpf, exposure from 5 hpf (caffeine 10 mg/L, diclofenac 3.2 mg/L, testosterone 3.0 mg/L), maximum for caffeine", "protocol": "The chorions of embryos were removed with forceps under a microscope before sampling for the Ce measurements. The dechorionated embryos (24 hpf) or the larvae (from 48 hpf onwards) were individually transferred through four beakers (for about 10 s per beaker) containing 500 mL of fresh dechlorinated tap water to remove chemical residues on the body surface. After that step, the embryos or larvae were homogenized with a silicone pestle in a 1.5 mL sampling tube containing a mixed solvent of the same composition as each liquid chromatography eluent to extract the test compound. The dechorionated embryos or the larvae were homogenized to extract the test compound. […] The supernatant was collected in a volumetric flask. The extraction procedure was performed twice, and the supernatants from the two batches were mixed and brought up to a volume of 1 mL with the mixed solvent of the same composition as each liquid chromatography eluent to extract the test compound.\nData were acquired in positive ion mode by using multiple reaction monitoring (MRM)."}, "cyp2y3 mRNA": {"tested_on": "cyp2y3 mRNA", "conditions": "55 hpf larvae; exposure from 30 hpf; 100 µM rifampicin or phenobarbital", "protocol": "as §1, §2"}, "cyp2n13 mRNA": {"tested_on": "cyp2n13 mRNA", "conditions": "55 hpf larvae; exposure from 30 hpf; 100 µM rifampicin or phenobarbital", "protocol": "as §1, §2"}, "[6]": {"tested_on": "cyp2n13, 2r1, 2y3, and 3a65", "assay": "qPCR of CYP subtypes in 55 hpf larvae after inducer exposure", "conditions": "100 µM", "from_the_text": "as §1"}, "[7]": {"conditions": "55 hpf larvae, exposure from 30 hpf, 1.0 ppb TCDD, 100 µM phenobarbital or rifampicin"}},
  "note": "Structures can show the parent of a compound that is named as a salt. Where two headings read alike, the source gives them in different places.",
  "data": [
    {"molecule": "OCc1ncc2n1-c1ccc(Cl)cc1C(c1ccccc1F)=NC2", "note": "[1-hydroxymidazolam]", "values": [
      {"measurement": "Detection of metabolite of midazolam (neither has been detected)", "setting": "[1]", "result": "Neither"}
    ]},
    {"molecule": "COc1ccc2c(c1)[C@@]13CCCC[C@H]1[C@@H](C2)NCC3", "note": "[3-Methoxymorphinan]", "values": [
      {"measurement": "Detection of metabolite of dextromethorphan", "setting": "[1]; adult zebrafish liver microsomes", "result": "detected"}
    ]},
    {"molecule": "Cc1ncc2n1-c1ccc(Cl)cc1C(c1ccccc1F)=NC2O", "note": "(stereo not drawn) [4-hydroxymidazolam]", "values": [
      {"measurement": "Detection of metabolite of midazolam (neither has been detected)", "setting": "[1]", "result": "Neither"}
    ]},
    {"molecule": "C[C@]12CC[C@H]3[C@@H](C[C@@H](O)C4=CC(=O)CC[C@@]43C)[C@@H]1CC[C@@H]2O", "note": "[6β-hydroxytestosterone]", "values": [
      {"measurement": "Detection of metabolite in embryos or larvae", "setting": "[2]; 50 or 120 hpf, during exposure to testosterone", "result": "not detected"},
      {"measurement": "Detection of metabolite of testosterone", "setting": "zebrafish; zebrafish larvae at 7 dpf or zebrafish adults", "result": "detected"}
    ]},
    {"molecule": "Clc1cc2c(cc1Cl)Oc1cc(Cl)c(Cl)cc1O2", "note": "[TCDD, 2,3,7,8-tetrachlorodibenzo-p-dioxin]", "values": [
      {"measurement": "cyp3a65 mRNA signal by in situ hybridization", "setting": "cyp3a65 mRNA", "result": "signal appeared in some"},
      {"measurement": "cyp2r1 mRNA signal by in situ hybridization (location similar to liver)", "setting": "cyp2r1 mRNA; [7]", "result": "Positive signals"}
    ]},
    {"molecule": "Cn1c(=O)c2c(ncn2C)n(C)c1=O", "note": "[caffeine]", "values": [
      {"measurement": "Maximum test solution concentration that caused neither morphological nor behavioral abnormalities during exposure", "setting": "[3]", "result": 10, "unit": "mg/L"},
      {"measurement": "log Kow", "setting": "[4]", "result": "−0.07"},
      {"measurement": "Ce of caffeine per whole embryo or larva", "setting": "[2]; 50 hpf", "result": "2.69 ± 0.14", "unit": "ng"},
      {"measurement": "Ce of caffeine per whole embryo or larva", "setting": "[2]; 120 hpf", "result": "5.15 ± 0.31", "unit": "ng"},
      {"measurement": "Ce per one whole embryo or larva", "setting": "[5]", "result": "4.54 ± 0.10", "unit": "ng"}
    ]},
    {"molecule": "COc1ccc2c(c1)[C@]13CCCC[C@@H]1[C@H](C2)N(C)CC3", "note": "[dextromethorphan]", "values": [
      {"measurement": "Detection of metabolites of the compound", "setting": "[1]; microsomes from whole embryos or larvae at 5, 24, 48, 72, 96, or 120 hpf", "result": "no metabolites of this compound have been detected"}
    ]},
    {"molecule": "O=C(O)Cc1ccccc1Nc1c(Cl)cccc1Cl", "note": "[diclofenac, diclofenac sodium salt]", "values": [
      {"measurement": "Maximum test solution concentration that caused neither morphological nor behavioral abnormalities during exposure", "setting": "[3]", "result": 3.2, "unit": "mg/L"},
      {"measurement": "log Kow", "setting": "[4]; pH 7.4", "result": 1.13},
      {"measurement": "Ce per embryo or larva (maximum value)", "setting": "[5]; 72 hpf, exposure to 3.2 mg/L from 5 hpf", "result": "1.64 ± 0.15", "unit": "ng"}
    ]},
    {"molecule": "CCOc1ccc(NC(C)=O)cc1", "note": "[phenacetin]", "values": [
      {"measurement": "Detection of human CYP1A2-mediated metabolites", "setting": "zebrafish; zebrafish 7 dpf incubated with the drug", "result": "detected"}
    ]},
    {"molecule": "CCC1(c2ccccc2)C(=O)NC(=O)NC1=O", "note": "[phenobarbital]", "values": [
      {"measurement": "cyp2r1 mRNA signal by in situ hybridization (location similar to liver)", "setting": "cyp2r1 mRNA; in vivo", "result": "Positive signals"},
      {"measurement": "cyp2y3 mRNA by in situ hybridization (liver and intestine locations)", "setting": "cyp2y3 mRNA", "result": "detectable"},
      {"measurement": "cyp2N13 mRNA expression by in situ hybridization", "setting": "cyp2n13 mRNA", "result": "detected"}
    ]},
    {"molecule": "CO[C@H]1/C=C/O[C@@]2(C)Oc3c(C)c(O)c4c(O)c(c(/C=N/N5CCN(C)CC5)c(O)c4c3C2=O)NC(=O)/C(C)=C\\C=C\\[C@H](C)[C@H](O)[C@@H](C)[C@@H](O)[C@@H](C)[C@H](OC(C)=O)[C@@H]1C", "note": "[rifampicin]", "values": [
      {"measurement": "cyp2r1 mRNA signal by in situ hybridization (location similar to liver)", "setting": "cyp2r1 mRNA; [7]", "result": "Positive signals"},
      {"measurement": "cyp2N13 mRNA expression by in situ hybridization", "setting": "cyp2n13 mRNA", "result": "detected"}
    ]},
    {"molecule": "Nc1c2c(nc3ccccc13)CCCC2", "note": "[tacrine]", "values": [
      {"measurement": "Detection of human CYP1A2-mediated metabolites", "setting": "zebrafish; zebrafish, in vivo", "result": "detected"}
    ]},
    {"molecule": "C[C@]12CC[C@H]3[C@@H](CCC4=CC(=O)CC[C@@]43C)[C@@H]1CC[C@@H]2O", "note": "[testosterone]", "values": [
      {"measurement": "Maximum test solution concentration that caused neither morphological nor behavioral abnormalities during exposure", "setting": "[3]", "result": 3.0, "unit": "mg/L"},
      {"measurement": "Ce per embryo or larva (maximum value)", "setting": "[5]; 48 hpf, exposure to 3.0 mg/L from 5 hpf", "result": "12.8 ± 1.14", "unit": "ng"},
      {"measurement": "Ce per one whole embryo or larva", "setting": "[5]", "result": "1.43 ± 0.11", "unit": "ng"}
    ]},
    {"molecule": "O=c1cc(-c2ccccc2)oc2ccc3ccccc3c12", "note": "[β-naphthoflavone]", "values": [
      {"measurement": "Significant induction of cyp2n13, 2r1, 2y3, and 3a65 by qPCR", "setting": "[6]", "result": "not recognized"}
    ]}
  ]
}
